Source: publication PMC5755735, “Discovery of indolylpiperazinylpyrimidines with dual-target profiles at adenosine A2A and dopamine D2 receptors for Parkinson's disease treatment” (PLoS ONE, 2018)

Tests used:
[1] = tested on: parkin-null flies; assay: parkin-null Drosophila model of PD (climbing assay, DA neuron count); type: in vivo; conditions: 50 μM
Source text: (§1) Parkin-null (pk-/-) flies were first used to evaluate compound 5. […] (Fig 8B), the cluster used widely in the parkin-null flies. Compound 5 was subsequently examined for its ability to ameliorate LRRK2 G2019S-induced PD phenotypes. […] Taken together, these findings indicate that compound 5 acts as a suppressor of DA neuron dysfunction in two Drosophila genetic PD models—one with parkin-null which represents recessive PD, and one with transgene LRRK2 G2019S-mutant, which represents dominant PD.
(§2) Fly lines for 24B-Gal4 (muscle specific), ddc-Gal4 (dopaminergic neuron-specific), elav-Gal4 (pan-neuronal), UAS-mito-GFP, and UAS-dAMPK-KA were purchased from Bloomington Drosophila Stock Center. The parkin-null mutant flies were kind gifts from Chung J. and Cho K. S. (Korea Advanced Institute of Science and Technology, Daejeon, Korea). […] After a 2-hour recovery period from CO2 exposure, flies were gently tapped to the bottom of the column, and the number of flies that reached the top of column at 1 min was counted. […] DA neurons were quantified according to previously published method. The size of mito-GFP puncta was measured using the ImageJ program and expressed as mean ± SD (n ≥ 10 DA neurons per experimental group). Statistical significance for all the quantitative data obtained were analyzed using one-way ANOVA with Tukey’s test HSD post hoc test (*p < 0.05, **p < 0.01).

[2] = tested on: LRRK2 G2019S-expressing flies; assay: LRRK2 G2019S Drosophila model of PD (climbing assay, DA neuron count); type: in vivo
Source text: as §1, §2

[3] = target: T1, human A2B receptors expressed in CHO cells (Homo sapiens, UniProt P29275); assay: inhibition of NECA-stimulated adenylyl cyclase activity at hA2B
T1 sequence (P29275 1-332): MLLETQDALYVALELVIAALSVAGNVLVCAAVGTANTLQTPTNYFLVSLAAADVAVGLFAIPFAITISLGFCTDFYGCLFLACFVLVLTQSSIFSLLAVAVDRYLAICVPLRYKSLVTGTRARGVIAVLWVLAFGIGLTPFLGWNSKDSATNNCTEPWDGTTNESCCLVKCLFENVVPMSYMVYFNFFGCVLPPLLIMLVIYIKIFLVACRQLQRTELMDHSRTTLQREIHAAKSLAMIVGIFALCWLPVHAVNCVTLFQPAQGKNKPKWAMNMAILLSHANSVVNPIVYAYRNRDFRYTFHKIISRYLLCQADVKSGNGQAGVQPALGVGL
Procedure: For measurement of adenylyl cyclase activity in the hA2B receptors, one-step centrifugation procedure was used; the homogenate was sedimented for 30 min at 54,000 g. The so-obtained crude membrane pellet was re-suspended in 50 mM Tris/HCl, pH 7.4 and used for the adenylyl cyclase assay immediately.
The membranes were incubated with about 150,000 cpm of [α-^32P]adenosine triphosphate ([α-^32P]ATP) and test compounds in different concentrations for 20 min. A non-linear regression analysis was applied to calculate the IC50 of the adenylyl cyclase activity assay. From the IC50 values, Ki values were then calculated using the Cheng and Prusoff equation [46].

[4] = target: human dopamine D2 receptor (Homo sapiens, UniProt P14416); assay: adenylyl cyclase inhibition (cAMP accumulation) assay in CHO cells transfected with D2 receptor; type: cell-based; design: expressed in transfected cells; host or cells: CHO cells
Sequence of human dopamine D2 receptor (P14416 whole entry): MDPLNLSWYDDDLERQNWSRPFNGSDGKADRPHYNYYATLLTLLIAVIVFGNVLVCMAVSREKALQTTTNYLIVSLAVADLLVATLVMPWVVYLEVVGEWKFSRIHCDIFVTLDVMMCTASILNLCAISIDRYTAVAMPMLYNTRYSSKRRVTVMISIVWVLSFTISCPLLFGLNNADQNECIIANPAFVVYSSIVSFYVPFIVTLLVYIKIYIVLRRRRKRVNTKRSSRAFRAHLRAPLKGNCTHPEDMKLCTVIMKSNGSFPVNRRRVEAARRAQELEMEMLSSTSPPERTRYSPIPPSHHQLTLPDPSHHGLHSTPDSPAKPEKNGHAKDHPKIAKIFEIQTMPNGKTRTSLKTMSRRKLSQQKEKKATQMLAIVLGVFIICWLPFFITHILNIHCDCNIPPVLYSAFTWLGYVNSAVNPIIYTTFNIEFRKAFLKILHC
Procedure: CHO cells transfected with D2 receptors were cultured and then serum starved overnight. Cells were treated with various concentrations of ligands (25 μL of 10X solution), stimulated with forskolin (0.5 μM) and 3-isobutyl-1-methylxanthine (IBMX) (0.5 mM), and incubated for 15 minutes. After lysis, cAMP content was determined by ELISA.

Structure (SMILES)	DA neuronal count (PPL1 cluster) [1]	climbing score ([1]; compared with untreated mutant flies)	climbing score ([2]; 50 μM and 100 μM)	DA neuronal count ([2]; LRRK2 G2019S-expressing flies)	Ki [3] [µM]	functional activity at D2 receptor (cAMP accumulation induced by forskolin/IBMX) ([4]; 1 μM, 10 μM and 100 μM)	inhibition of cAMP accumulation (optimal inhibition) ([4]; 100 μM, p = 0.0232)
Cc1cc(C)nc(N2CCN(C(=O)c3c[nH]c4ccccc34)CC2)n1 [Compound 5, 3‐[4‐(4,6‐Dimethylpyrimidin‐2‐yl)piperazine‐1‐carbonyl]‐1H‐indole]	reduction of DA neuron loss in the PPL1 cluster	improvement in climbing scores	improvement in climbing (in a concentration-dependent manner)	mitigation of DA neuron degeneration	–	–	–
Cc1cc(C)nc(N2CCN(C(=O)Cc3c(C)[nH]c4ccccc34)CC2)n1 [Compound 6, 1‐[4‐(4,6‐Dimethylpyrimidin‐2‐yl)piperazin‐1‐yl]‐2‐(2‐methyl‐1H‐indol‐3‐yl)ethan‐1‐one]	–	–	–	–	> 20	acted as a D2 receptor agonist	comparable potency to 100 nM of quinpirole
